The source of these data is ChEMBL document CHEMBL5390254, “Discovery and Optimization of Novel hDHODH Inhibitors for the Treatment of Inflammatory Bowel Disease” (J Med Chem, 2023).

A short description of data set [1]: Metabolic stability in rat liver microsomes assessed as intrinsic clearance at 3 uM incubated upto 90 mins in presence of NADPH by LC-MS/MS analysis. Type of data set: ADME, Microsome. Conditions: read-out: CLH.
Data set [2] can be described thus: Metabolic stability in mouse liver microsomes assessed as intrinsic clearance at 3 uM incubated upto 90 mins in presence of NADPH by LC-MS/MS analysis. In kind it is ADME, Microsome. Conditions: read-out: CLH.
Data set [3] is described as follows: Metabolic stability in human liver microsomes assessed as intrinsic clearance at 3 uM incubated upto 90 mins in presence of NADPH by LC-MS/MS analysis. Type of data set: ADME, Microsome. Conditions: read-out: CLH.
Data set [4] in a line: Metabolic stability in mouse liver microsomes assessed as half life at 3 uM incubated upto 90 mins in presence of NADPH by LC-MS/MS analysis. Type of data set: ADME, Microsome.
The nature of data set [5]: Metabolic stability in human liver microsomes assessed as half life at 3 uM incubated upto 90 mins in presence of NADPH by LC-MS/MS analysis. Type of data set: ADME, Microsome.
Data set [6] is described as follows: Metabolic stability in rat liver microsomes assessed as half life at 3 uM incubated upto 90 mins in presence of NADPH by LC-MS/MS analysis. In kind it is ADME, Microsome.
The nature of data set [7]: 1-octanol/water partition coefficient, logP of the compound at 2 mg by UPLC analysis. In kind it is physicochemical.
In data set [8] the test system is Mus musculus. In words: Anti-inflammatory activity against DSS-induced acute ulcerative colitis in C57BL/6 mouse model assessed as decrease in IL-1beta mRNA expression level in colon at 100 mg/kg, po QD for 6 days by RT-PCR analysis. Type of data set: functional, organism-based. Conditions: time 6.0 day.
Data set [9] has as its system Mus musculus. In words: Anti-inflammatory activity against DSS-induced acute ulcerative colitis in C57BL/6 mouse model assessed as decrease in IL-6 production in colon at 100 mg/kg, po QD for 6 days by ELISA. Type of data set: functional, organism-based. The settings on record: time 6.0 day.
Data set [10] relates to Mus musculus. In words: Anti-inflammatory activity against DSS-induced acute ulcerative colitis in C57BL/6 mouse model assessed as decrease in colon length shortening at 100 mg/kg, po QD for 6 days (Rvb= 5.5cm). Type of data set: functional. The settings on record: time 6 day.
The test system of data set [11] is Mus musculus. In words: Anti-inflammatory activity against DSS-induced acute ulcerative colitis in C57BL/6 mouse model assessed as decrease in IL-6 mRNA expression level in colon at 100 mg/kg, po QD for 6 days by RT-PCR analysis. In kind it is functional, organism-based. The settings on record: time 6.0 day.
A short description of data set [12]: Oral bioavailability in Han Wistar rat at 5 mg/kg and measured upto 24 hrs by LC-MS analysis. Type of data set: ADME, organism-based. Conditions: in vivo.
Data set [13] deals with Mus musculus. In words: Anti-inflammatory activity against DSS-induced acute ulcerative colitis in C57BL/6 mouse model assessed as decrease in IL-1beta production in colon at 100 mg/kg, po QD for 6 days by ELISA. In kind it is functional, organism-based. Conditions: time 6.0 day.
The nature of data set [14]: Apparent oral clearance in Han Wistar rat at 5 mg/kg,po and measured upto 24 hrs by LC-MS analysis. Conditions: in vivo. In kind it is ADME, organism-based.
A short description of data set [15]: Terminal half life in Han Wistar rat at 5 mg/kg,po and measured upto 24 hrs by LC-MS analysis. Type of data set: ADME, organism-based. Conditions: in vivo, read-out: beta t1/2 (converted).
The target in data set [16] is Dihydroorotate dehydrogenase (quinone), mitochondrial (Homo sapiens) (UniProt Q02127). The settings on record: dose 10.0 µM.
Dihydroorotate dehydrogenase (quinone), mitochondrial (Homo sapiens), sequence (Q02127 whole entry): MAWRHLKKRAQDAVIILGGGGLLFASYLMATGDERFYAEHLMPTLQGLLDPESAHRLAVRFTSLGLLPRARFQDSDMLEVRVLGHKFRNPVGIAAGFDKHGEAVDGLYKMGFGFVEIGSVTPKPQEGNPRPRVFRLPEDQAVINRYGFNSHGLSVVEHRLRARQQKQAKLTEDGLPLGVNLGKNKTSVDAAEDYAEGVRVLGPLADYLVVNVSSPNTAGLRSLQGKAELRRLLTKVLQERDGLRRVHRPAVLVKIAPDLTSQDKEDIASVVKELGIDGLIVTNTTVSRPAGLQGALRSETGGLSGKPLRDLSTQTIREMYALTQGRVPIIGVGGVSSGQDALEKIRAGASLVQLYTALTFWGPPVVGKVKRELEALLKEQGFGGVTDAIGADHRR
Description: Binding affinity to human DHODH assessed as change in melting temperature at 10 uM by thermal shift based DSF assay
For data set [17], the system named is Mus musculus. Kind of data set: Anti-inflammatory activity against DSS-induced acute ulcerative colitis in C57BL/6 mouse model assessed as decrease in IL-17 production in colon at 100 mg/kg, po QD for 6 days by ELISA. Type of data set: functional, organism-based. Conditions: time 6.0 day.
The subject of data set [18] is Mus musculus. In words: Anti-inflammatory activity against DSS-induced acute ulcerative colitis in C57BL/6 mouse model assessed as decrease in colon tissue damage score at 100 mg/kg, po QD for 6 days relative to DSS group. The settings on record: time 6 day. Also on record: scale not given: the % may be the effect or the level left. In kind it is functional.
The test system of data set [19] is Mus musculus. In words: Anti-inflammatory activity against DSS-induced acute ulcerative colitis in C57BL/6 mouse model assessed as decrease in IL-17 mRNA expression level in colon at 100 mg/kg, po QD for 6 days by RT-PCR analysis. Type of data set: functional, organism-based. Conditions: time 6.0 day.
Data set [20] in a line: Apparent volume of distribution during terminal phase in Sprague-Dawley rat at 15 mg/kg, po and measured upto 48 hrs by LC-MS/MS analysis. The settings on record: in vivo, read-out: Vz/F. In kind it is ADME, organism-based.

Active and inactive are the calls of the source. The rule behind the calls is not given here.

On to `Nc1nc(-c2nn(Cc3ccccc3F)c3ncccc23)ncc1C1CC1`, for which the CLint scaled at 3 µM in [1] is 101 mL/min/kg; in [2] it was 177 mL/min/kg; in [3], 45.7 mL/min/kg. For the same compound, the half-life at 3 µM in data set [4] was 30.8 min; in [5], 38.1 min; in data set [6], 24.5 min.
Compound `Fc1cccc(F)c1Cn1cc(-c2ncc(C3CC3)cn2)c2cccnc21` displayed a logP in data set [7] of 5.5.
In the case of `COc1cccc(-c2ccc(NC(=O)C3=C(C(=O)O)CCC3)c(F)c2)c1` [VIDOFLUDIMUS], the result with Mus musculus [8], with Mus musculus [9], in the data set on Mus musculus [11], with Mus musculus [13], in the data set with Mus musculus [17] and in the data set with Mus musculus [19] was Active. The Activity in the data set on Mus musculus [10] was determined as 6.4 cm; with Mus musculus [18] it was 22.73%. The compound further gave a bioavailability in data set [12] of 73.8%. In addition, the apparent clearance CL/F in data set [14] turned out to be 220 mL/min/kg. Moreover, the half-life in data set [15] is 546 min. In data set [16], the ΔTm was 9.8 °C. The Vd/F in data set [20] came out at 0.02 L/kg.
